Assay results reported in patent US20200268832A1, “COMPOSITIONS FOR DELIVERY TO AND TREATMENT OF ATHEROSCLEROTIC PLAQUES” (Sanford Burnham Prebys Medical Discovery Institute, priority 2015, published 2020).
Entries after “also recorded” stand apart in the source; their conditions may differ.

Tests used:
Type in all cases: binding
[1] = target: T1, p32 protein (Homo sapiens, UniProt Q07021); experiment: Fluorescence polarization assay: displacement of FAM-TT1 from p32 (HTS, dose response, unlabeled peptide competition)
T1 construct: 6xHis; host or cells: Rosetta-gami-2 cells (Novagen); an E. coli strain by own knowledge
T1 sequence (Q07021 74-282): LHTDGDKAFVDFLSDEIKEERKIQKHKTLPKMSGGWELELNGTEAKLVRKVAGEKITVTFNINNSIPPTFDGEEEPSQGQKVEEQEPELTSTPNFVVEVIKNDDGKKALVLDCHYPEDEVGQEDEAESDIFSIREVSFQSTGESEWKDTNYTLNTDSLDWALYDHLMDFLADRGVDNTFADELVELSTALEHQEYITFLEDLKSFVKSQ
Experimental: Fluorescence polarization (FP)-based assay was used for solution-based screening of compound libraries for p32 binding compounds. […] In FP assay, peptide conjugated with a fluorescent label (fluorescein-AM, FAM) is excited with polarized light. […] 6×-His-Tagged p^32 was expressed in Rosetta-gami-2 cells (Novagen). The protein was purified by IMAC using HIS-select resin (Sigma) with an imidizole gradient from 20-300 mM and eluted fractions were analyzed on analytical SDS-PAGE. […] Fluorescence polarization is given as milli-polarization (mP) value, which is obtained from equation (1):
mP=1000*(S−P)/(S+P), (Eq. 1)
The assay was initially set up in 20 μl well volume in 384 well plate (Corning Life Sciences), and measurements were carried out using PheraStar FS plate reader (BMG LABTECH, Ortenberg, Germany) in quadruplicate. Peptide and protein stock solutions were diluted to desired concentration with assay buffer (50 mM BIS-TRIS pH 7.4, 0.05% Tween20, 1 mM DTT). FAM-labeled peptides were protected from light during the experiment to avoid photobleaching. Optimal concentration of fluorescein (FAM) labeled-peptides for the assay was determined by measuring the limit of detection (LOD), signal-to-background ratio (S/B), and stability of mP value over series of peptide concentrations. In the binding assay, the concentration of FAM-peptide was kept constant, and the FP was measured over the range of target protein concentrations. The peptide dissociation constant (KD) was obtained by fitting the binding curve into Michaelis-Menten kinetics in GraphPad Prism-software (GraphPad Software, Inc., CA, USA).
FAM-TT-1 and p32 solutions are prepared just before experiment, and stored on ice during the screen; the peptide is shielded from light. • 1. […] Dispense 1.5 μL of assay buffer (50 mM BIS-TRIS pH 7.4, 0.05% Tween 20, 1 mM DTT) into columns 1-4 • 3. […] Dispense 37.5 nL of compounds (2 mM) into columns 5-44 • 5. Spin plate • 6. Incubate 20 min • 7. Dispense 1.5 μL FAM-TT-1 peptide (20 nM) into all columns • 8. Shake plate and spin plate • 9. Incubate 25 min • 10. Read plate on PheraStar FS
Chemical library of ˜50,000 compounds from ChemBridge (San Diego, Calif.) was screened in High-Throughput Screening Facility at Conrad Prebys Center for Chemical Genomics (Sanford-Burnham Medical Research Institute, La Jolla, Calif.). […] Peptide and protein were diluted immediately prior to screening, kept on ice during screening, and FAM-peptide was protected from light throughout the experiment. […]

[2] = target: T2, b1b2 domain of NRP-1 (Homo sapiens, UniProt O14786); experiment: Fluorescence polarization displacement of FAM-RPARPAR from NRP-1; conditions: specificity assay, up to 100 μM
T2 sequence (O14786 273-586 limits assumed): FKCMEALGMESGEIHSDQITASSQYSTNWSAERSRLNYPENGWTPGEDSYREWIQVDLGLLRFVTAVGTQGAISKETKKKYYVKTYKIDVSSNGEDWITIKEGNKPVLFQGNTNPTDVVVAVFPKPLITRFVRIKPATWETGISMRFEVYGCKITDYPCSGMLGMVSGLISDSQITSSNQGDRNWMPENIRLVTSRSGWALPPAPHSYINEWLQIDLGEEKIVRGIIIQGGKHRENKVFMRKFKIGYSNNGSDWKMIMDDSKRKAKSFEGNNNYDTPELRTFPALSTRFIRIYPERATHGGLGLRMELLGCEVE
Experimental: Results of the high-throughput screen were confirmed in dose response tests. 8.25 μM to 100 μM dilutions of the compounds that displaced FAM-peptide from p32 were used in competition with FAM-peptide as described in previous section. Specificity of the hit compounds was verified by examining their binding to a different protein, b1b2 domain of NRP-1 (Vander Kooi et al., Proc. Natl. Acad. Sci. U.S.A., 10.1073/pnas.0700043104). Experimental method for NRP-1 b1b2 was developed and validated similarly to p32, using FAM-RPARPAR peptide as a known peptide ligand for NRP-1. The displacement of FAM-RPARPAR from NRP-1 protein by the hit compounds was studied in 384-well format, as described above.

[3] = target: T1, p32 protein; experiment: NMR 1D 1H-aliph spectra of p32 with compounds; conditions: 5 μM p32; compounds 100 and 500 μM; TT1 70 μM
Experimental: FIGS. 3A and 3B are graphs showing NMR based evaluation of binding of compounds 4014008 and 7933989 to P32 protein. The ID ^1H-aliph spectra of 5 μM P32 in the absence (bottom) and presence of compounds #4014008 (A) and #7933989 (B) at 100 μM (second from bottom) and 500 μM (second from top) were collected. As a control, the spectrum of p32 in the presence of the known peptide binder, TT1 at 70 μM, was also collected (top).
All the NMR experiments were carried out on a Bruker Avance 700 spectrometer equipped with a TCI cryoprobe at T=293 K. For structure determinations, the peptide concentration was 100 μM in the NMR buffer in presence of 150 μM of ZnCl2. One-dimensional (1D) 1H spectra were acquired with a spectral width of 8417.51 Hz, relaxation delay 1.0 s, 8 k data points for acquisition and 16 k for transformation.

inhibition at 25 µM ([1]; high-throughput screen hits, inhibition of TT1-p32 interaction, library compounds 25 μM (Table 1), b410 says 100 μM): 29.9%
inhibition at 100 µM ([1]; highest concentration used, 100 μM, read-out: inhibition of FAM-TT1 binding to p32 in FP assay): 75%
effect on RPARPAR peptide binding to NRP-1 [2]: no effect
SMILES: Cc1cnccc1NCCN [Compound 4014008, N-(3-methylpyridin-4-yl)ethane-1,2-diamine]
perturbations in 1D 1H-aliphatic spectra of p32 [3]: caused similar perturbations; also recorded: shift in the peak at around −0.3 ppm
